Where two headings read alike, the source gives them in different places.
Experiments:
[1] = tested on: human adenovirus type 5 (HAdV5); set-up: method as in ref 16 = [16]; details: combined virucidal and irradiation effects; cited from earlier work
[2] = tested on: bovine coronavirus (BCoV) strain S379 Riems; assay type: cell-based, Beta-coronavirus 1; details: for EC100 (100% Viable Cells): BCoV MOI = 1, with irradiation
[3] = tested on: bovine coronavirus (BCoV); assay type: cell-based, Beta-coronavirus 1; details: with irradiation, MDBK cells
[4] = tested on: bovine coronavirus (BCoV); assay type: cell-based, Beta-coronavirus 1
MDBK cells [5] = details: for IC50: no BCoV
MDBK cells [6] = assay: cells; details: Bos taurus
SARS-CoV-2 [7] = details: irradiation with a wave length of λ = 662 nm; cited from earlier work
BCoV = tested on: BCoV; set-up: method as in ref 48 = [48]; details: independently of light; cited from earlier work
vaccinia viruses = details: 30 µM of MB + PDI; not virus antigenicity; cited from earlier work
SARS-CoV-2 [8] = details: 1% MB, cited from earlier work
SARS-CoV-2 [9] = tested on: SARS-CoV-2; set-up: method as in ref 19 = [19]; details: in combination with far red light irradiation; cited from earlier work
[10] = tested on: avian H5N8 influenza virus; details: cited from earlier work

Compound: tetra-methylpyridyloxy-substituted Ga phthalocyanine [Ga4]
- PDI potential on naked viruses, especially on HAdV5 [1]: remarkable PDI potential

Compound: Cc1cc2nc3ccc(N(C)C)cc3[s+]c2cc1N.[Cl-] [TBO, toluidine blue O]
- fold higher SI of TBO than MB [2]: 1.7 fold
- fold lower EC50 (fold more active) of TBO than MB ([2]; 50% BCoV inactivation, with irradiation): 3.6 fold
- EC50 ([2]; BCoV MOI = 1, irradiation 54 J/cm^2 (680 nm) for MB, 99 J/cm^2 (635 nm) for TBO, MDBK cells, MTT, read-out: EC50 (50% Viable Cells)): 0.005 µM
- EC100 (100% Viable Cells) ([2]; MDBK cells, MTT): 0.02 µM
- SI (IC50/EC50) ([2]; IC50 in MDBK cells / EC50 for direct BCoV inactivation with irradiation): 170
- concentration resulting in strong inactivation of BCoV ([2]; irradiation 680 nm and 54 J/cm^2 for MB, 635 nm and 99 J/cm^2 for TBO, Figure 7): ≥ 0.02 µM
- fold more effective than MB, based on the active concentrations ([2]; with irradiation): 25 fold
- viable cells ([2]; without irradiation, 0.25 µM, Figure 7b): 80%
- decrease of the fraction of viable cells (cytotoxic) ([2]; without irradiation, concentration increased above 0.25 µM, Figure 7b): approximately 50%
- concentrations up to which permissive cells were observed [3]: up to 0.01 µM
- decrease in the number of viral cDNA [4]: ~ 6 log/mL
- Δlog cDNA/mL vs. Virus Control ([4]; TBO 0.02 µM): 1.08 × 10^3
- Δlog cDNA/mL vs. Virus Control ([4]; TBO 0.30 µM): 5.91 × 10^6
- MNC (maximal nontoxic concentration) (MDBK cells [5]; 24 h incubation): 0.66 µM
- IC50 (MDBK cells [5]; 24 h incubation): 0.97 µM
- MNC (maximal nontoxic concentration) (MDBK cells [5]; 48 h incubation): 0.35 µM
- IC50 (MDBK cells [5]; 48 h incubation): 0.52 µM
- MNC (maximal nontoxic concentration) (MDBK cells [5]; 72 h incubation): 0.59 µM
- IC50 (MDBK cells [5]; 72 h incubation): 0.85 µM
- fold lower IC50 of TBO than MB (MDBK cells [5]; 72 h of incubation): 2.12 fold

Compound: octa-methylpyridyloxy-substituted Ga phthalocyanine [Ga8]
- PDI potential on naked viruses, especially on HAdV5 [1]: remarkable PDI potential

Compound: CN(C)c1ccc2nc3ccc(=[N+](C)C)cc-3sc2c1 [MB, Methylene blue]
- EC100 (100% Viable Cells) ([2]; MDBK cells, MTT): 0.15 µM
- "dark" antiviral activity towards BCoV ([2]; without irradiation, highest tested concentration 0.3 µM, Figure 7a): not enough to achieve “dark” antiviral activity
- concentrations up to which permissive cells were observed [3]: up to 0.075 µM
- IC50 (MDBK cells [6]; 24 h): 2.54 µM
- IC50 (MDBK cells [6]; 48 h): 1.28 µM
- IC50 (MDBK cells [6]; 72 h): 1.8 µM
- IC50 (MDBK cells [6]; read-out: IC50, range over the incubation periods): 1.28 to 2.54 µM
- protection of Vero E6 cells from infection (SARS-CoV-2 [7]): fully protected
- concentration at which light-independent antiviral activity was observed (BCoV): ≥ 1 µM
- effect on virus infectivity (vaccinia viruses): loss of virus infectivity
- SARS-CoV-2 virus load (SARS-CoV-2 [8]; gargling or spraying in the nasal cavity, early stages of the infection): sufficient reduction of the SARS-CoV-2 virus load
- adverse effects (SARS-CoV-2 [8]; local application, even in patients with co-morbidities): lack of adverse effects

Compound: octakis (cholinyl) zinc phthalocyanine [Zn-PcChol8+]
- infectivity of SARS-CoV-2 (SARS-CoV-2 [9]): completely destroyed the infectivity
- sensitivity of the virus to PDI [10]: sensitive to PDI

Source: PMC10818719 (Viruses, 2023)
